Measured values taken from PubChem BioAssay AID330 (DTP/NCI, 2004).
Toxic doses and inconclusive results are not listed. Square brackets hold non-standard residues; d marks the D form. Peptide text beside a SMILES is read from it. * marks the point of attachment. Cbz = O=C(OCc1ccccc1)*; Nva = CCC[CH](N)C(=O)O

Test system: P388 leukemia ip, CD2F1 mice, survival T/C
Assay: NCI In Vivo Anticancer Drug Screen. Data for tumor model P388 Leukemia (intraperitoneal) in CD2F1 (CDF1) mice
Conditions: endpoint: median survival time, higher = longer survival
Summary of the method: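 Mice carrying the transplanted tumor received test compound or vehicle. Survival was recorded in each group, and the value is the treated-group measurement divided by that of the vehicle-treated control group.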

[1] = dose: 50.0 mg/kg/injection, schedule: Q01DX005 (ip), vehicle: Klucel (hydroxypropylcellulose) (HPC)
[2] = dose: 100.0 mg/kg/injection, schedule: Q01DX005 (ip), vehicle: Klucel (hydroxypropylcellulose) (HPC)

For `Cc1[nH]cnc1CSCCN=C(N)n1[nH]cc(C)c1=O`, the T/C (dose: 60.0 mg/kg/injection, schedule: Q01DX005 (ip), vehicle: Klucel (hydroxypropylcellulose) (HPC)) was 111 % of control, the T/C (dose: 120.0 mg/kg/injection, schedule: Q01DX005 (ip), vehicle: Klucel (hydroxypropylcellulose) (HPC)) was 100 % of control and the T/C (dose: 240.0 mg/kg/injection, schedule: Q01DX005 (ip), vehicle: Klucel (hydroxypropylcellulose) (HPC)) was 99 % of control.

In the case of `O=C(O)c1cc([N+](=O)[O-])cc([N+](=O)[O-])c1Sc1ncccn1`, the T/C (dose: 50.0 mg/kg/injection, schedule: Q01DX009 (ip), vehicle: saline) is reported as 96 % of control, the T/C (dose: 100.0 mg/kg/injection, schedule: Q01DX009 (ip), vehicle: saline) is reported as 100 % of control and the T/C (dose: 200.0 mg/kg/injection, schedule: Q01DX009 (ip), vehicle: saline) is reported as 101 % of control.

`CN(C)C1CCc2ccc3ccccc3c2C1=O` (stereo unspecified) was tested, and the T/C [1] was 98 % of control and the T/C [2] was 103 % of control.

With `CCCC(NC(=O)OCc1ccccc1)C(=O)NC(Cc1ccc(O)cc1)C(=O)O` (stereo unspecified) (Cbz-[Nva]-Tyr-OH; configuration not given here) the T/C [1] was 102 % of control, the T/C [2] was 105 % of control and the T/C (dose: 200.0 mg/kg/injection, schedule: Q01DX005 (ip), vehicle: Klucel (hydroxypropylcellulose) (HPC)) was 94 % of control.

For `COC(=O)c1nc2[nH]n(-c3ccccc3)c(=O)c2c(C(=O)OC)c1C(C)C(=O)c1ccc(Cl)cc1` (stereo unspecified), the T/C (dose: 60.0 mg/kg/injection, schedule: Q01DX005 (ip), vehicle: saline with Tween-80) was 96 % of control, the T/C (dose: 120.0 mg/kg/injection, schedule: Q01DX005 (ip), vehicle: saline with Tween-80) was 103 % of control and the T/C (dose: 240.0 mg/kg/injection, schedule: Q01DX005 (ip), vehicle: saline with Tween-80) was 98 % of control.

For `COc1ccc2c(CCN(/C=C/C(C)=O)C(C)=O)cn(C(C)=O)c2c1`, the T/C (dose: 12.5 mg/kg/injection, schedule: Q01DX005 (ip), vehicle: Klucel (hydroxypropylcellulose) (HPC)) was 109 % of control, the T/C (dose: 25.0 mg/kg/injection, schedule: Q01DX005 (ip), vehicle: Klucel (hydroxypropylcellulose) (HPC)) was 104 % of control and the T/C [1] was 100 % of control.

For `CCC1C(OC)=CC(CC)(CO)C=C1OC` (stereo unspecified), the T/C (dose: 50.0 mg/kg/injection, schedule: Q01DX005 (ip), vehicle: saline with Tween-80) was 95 % of control, the T/C (dose: 100.0 mg/kg/injection, schedule: Q01DX005 (ip), vehicle: saline with Tween-80) was 95 % of control and the T/C (dose: 200.0 mg/kg/injection, schedule: Q01DX005 (ip), vehicle: saline with Tween-80) was 100 % of control.

`OC(CCl)c1ccc2ccc3c(c2c1)Nc1ccccc1S3` (stereo unspecified) was tested, and the T/C (dose: 100.0 mg/kg/injection, schedule: Q04DX003 (ip), vehicle: Klucel (hydroxypropylcellulose) (HPC)) was 107 % of control, the T/C (dose: 200.0 mg/kg/injection, schedule: Q04DX003 (ip), vehicle: Klucel (hydroxypropylcellulose) (HPC)) was 104 % of control and the T/C (dose: 400.0 mg/kg/injection, schedule: Q04DX003 (ip), vehicle: Klucel (hydroxypropylcellulose) (HPC)) was 102 % of control.

For `O=C(NNC(=S)Nc1ccccc1)c1ccncc1`, the T/C (dose: 50.0 mg/kg/injection, schedule: Q01DX009 (ip), vehicle: saline with Tween-80) was 107 % of control, the T/C (dose: 100.0 mg/kg/injection, schedule: Q01DX009 (ip), vehicle: saline with Tween-80) was 107 % of control and the T/C (dose: 200.0 mg/kg/injection, schedule: Q01DX009 (ip), vehicle: saline with Tween-80) was 107 % of control.
